Source: patent US9163032B2, “Esters of DCPLA and methods of treatment using the same” (Blanchette Rockefeller Neurosciences Institute, priority 2011, dated 2015)
Where “and” joins values, the source holds several entries; their conditions need not be identical. Equal values may be shown once.

Columns and labels:
[1] = tested on: PKC-ε; assay: PKC-ε translocation to membrane in SH-SY5Y neuroblastoma cells (Western Blot); format: cell-based, human; conditions: 1 μM (20-fold higher than ASPD), relative to control
Experimental: (§1) Cells were harvested in homogenizing buffer containing 10 mM Tris-Cl (pH 7.4), 1 mM PMSF (phenylmethylsulfonyl fluoride), 1 mM EGTA, 1 mM EDTA, 50 mM NaF, and 20 μM leupeptin, and were lysed by sonication. The homogenate was centrifuged at 100,000×g for 15 min at 4° C. to obtain the cytosolic fraction (supernatant) and membrane (pellet). The pellet was resuspended in the homogenizing buffer by sonication. For whole cell protein isolation from primary neurons, the homogenizing buffer contained 1% Triton X-100. Protein concentration was measured using the Coomassie Plus (Bradford) Protein Assay kit (Pierce, USA). Following quantification, 20 μg of protein from each sample was subjected to SDS-PAGE analysis in a 4-20% gradient Tris-Glycine gel (Invitrogen, USA). The separated protein was then transferred to a nitrocellulose membrane. The membrane was blocked with 5% BSA at room temperature for 15 min and was incubated with primary antibody overnight at 4° C. After the incubation, it was washed three times with TBS-T (Tris Buffered Saline-Tween 20) and further incubated with alkaline phosphatase conjugated secondary antibody (Jackson Immunoresearch Laboratories, USA) at 1:10000 dilution for 45 min. The membrane was finally washed three times with TBS-T and developed using the 1-step NBT-BCIP substrate (Pierce, USA). The blot was imaged in an ImageQuant RT-ECL (GE Life Sciences, Piscataway, N.J.) and densitometric quantification was performed using IMAL software (Blanchette Rockefeller Neurosciences Institute, Morgantown, W. Va.). For translocation assays, PKC activation was represented as the percentage of total protein in the membrane (membrane/cytosol+membrane).

[2] = tested on: synaptophysin; assay: Synaptophysin expression in primary hippocampal neurons (immunofluorescence, Western Blot); format: cell-based, rat; conditions: 1 μM, 20 hr
Experimental: (§2) Cells were grown in two chambered slides (Nunc, USA) at low density. For immunofluorescence staining, the cells were washed with PBS (pH 7.4) and fixed with 4% paraformaldehyde for 4 min. Following fixation, the cells were blocked and permeabilized with 5% serum and 0.3% Triton X-100 in 1×PBS for 30 min. Cells were washed three times with 1×PBS and incubated with primary antibodies for 1 hr at 1:100 dilution. After the incubation, the slides were again washed three times in 1×PBS and were incubated with the FITC anti-mouse IgG and Rhodamine anti-rabbit IgG for 1 hr at 1:400 dilution. The cells were further washed and stained with DAPI (4′,6-diamidino-2′-phenylindole, dihydrochloride) (Thermo Scientific, USA) to stain the nucleus. Finally, the slides were washed and mounted in Pro Long Gold antifade mounting solution (Invitrogen, USA) and were viewed under a LSM 710 Meta confocal microscope (Zeiss) at 350 nm, 490 nm, and 540 nm excitation and 470 nm, 525 nm, and 625 nm emission for DAPI, FITC, and Rhodamine respectively. Six individual fields at 63× oil lens magnification were analyzed for the mean fluorescence intensity (MFI) in each channel.
as §1
(§3) To estimate the synaptic damage caused by the ASPDs on primary hippocampal neurons, the expression of synaptophysin (a presynaptic marker) and PSD-95 (a postsynaptic marker) was measured by immunofluorescence staining. […] Following a 20 hr incubation period, the cells were stained for nucleus, PSD-95, and synaptophysin. Expression levels were calculated as the change of percentage in mean fluorescence intensity compared to untreated cells.
(§4) Primary neurons, treated and untreated, were immunostained for MAP-2, synaptophysin, and PSD-95 to determine the synaptic integrity. […] Following a 20 hr incubation period, the cells were stained for MAP-2, PSD-95, and synaptophysin as described above.

[3] = tested on: PSD-95; assay: PSD-95 expression in primary hippocampal neurons (immunofluorescence); format: cell-based, rat; conditions: 1 μM, 20 hr
Experimental: as §2, §3, §4

[4] = tested on: rat primary hippocampal neurons; assay: Neurotoxic effect of Aβ1-42 oligomers, MTT viability assay; format: cell-based; conditions: 20 hr
Experimental: Amylospheroids (ASPDs) and Aβ monomers were prepared following Hoshi, M., et al. (2003) Proc Natl Acad Sci USA 100, 6370-6375, and Noguchi, A., et al. (2009) J Biol Chem 284, 32895-32905. Briefly, Aβ1-42 was dissolved in 1,1,1,3,3,3-hexafluoro-2-propanol and incubated overnight at 4° C. and then 3 hr at 37° C. The dissolved Aβ1-42 was then lyophilized in 1.5 ml polypropylene centrifuge tubes at 40 nmol/tube concentration. For preparing the ASPDs, the lyophilized Aβ was dissolved in phosphate buffered saline (PBS) without Ca^2+ or Mg^2+ at less than 50 μM concentration and rotated for 14 hr at 4° C. After incubation, the Aβ solution was purified using a 100 kDa molecular mass cutoff filter (Amicon Ultra, Millipore) and the high-molecular weight fraction was saved to obtain the most toxic ASPDs. Aβ derived diffusible ligands (ADDLs) were produced as previously described. See Lambert, M. P et al., Proc. Natl. Acad. Sci. USA, 1998, 95: 6448-6453. Briefly, Aβ1-42 was solubilized at 5 mM in dimethyl sulfoxide, diluted to 100 μM in F12k medium and was incubated at 4° C. for 24 hr. The solution was centrifuged at 14000×g for 10 min at 4° C. and the supernatant was used as the ADDLs.
(§5) Viability of cells was measured by MTT assay. MTT (i.e., 3-(4,5-dimethylthiazol-2-yl)-2,5-diphenyltetrazolium bromide) is a tetrazolium salt that is cleaved to formazan by the succinate dehydrogenase, which is only active in viable cells. After solubilization of the formazan, the amount of dye can be quantified with a microplate reader at 570 nm along with a reference of 630 nm. For the MTT assay, 5×10^4 primary rat hippocampal neurons from 18-day-old embryonic Sprague-Dawley rat brains or SH-SY5Y cells were plated on each well of 24-well plates coated with poly-D-lysine. After treatment, the cells were washed with 1× PBS and were incubated with 200 μl of 1 mg/ml MTT solution (Sigma, USA) at 37° C. for 2 hr. Then the MTT-solution was removed and the cells were lysed with 200 μl isopropanol containing 0.04 M HCl and […] for 10 min. Finally, the reading was taken at 570 nm and 630 nm. All the samples were done in triplicate and the data were represented as the percentage of control.
To assess the neurotoxic effect of different sized oligomers, rat primary hippocampal neurons were treated with variable concentrations of these Aβ1-42 species for 20 hr. Viability of the treated cells was compared to untreated cells using the MTT assay described above.

[5] = tested on: Phosphatidylserine (C2) Binding Site; assay: 3H-DCPLA-ME binding to rat brain slices with C1 and C2 competitors (film-autoradiography); conditions: rat brain slices
Experimental: To determine the binding site of DCPLA-ME, ^3H-DCPLA-ME was incubated with rat brain slices in the absence and presence of known C1 and C2 competitors. More specifically, rat brain sections were fixed with formaldehyde, sliced, and incubated with (1)^3H-DCPLA-ME alone; (2)^3H-DCPLA-ME with DCPLA; (3)^3H-DCPLA-ME with Phorbol ester; or (4)^3H-DCPLA-ME and Bryostatin 1. After incubation, the slices were washed with a buffer made of 130 mM NaCl, 5 mM MgCl, 5 mM KCl, 1 mM EGTA, and 0.1% bovine serum albumin in 10 mM HEPES-NaOH, pH 7.4, dried, and analyzed with film-autoradiography.

[6] = tested on: primary human cortical neurons; assay: 40 day culture of human primary cortical neurons: survival, synapses, branching; format: cell-based; conditions: 0.27 nM
Experimental: To examine the effects of PKC-ε activation, cultured human cortical neurons in serum-free artificial medium were exposed to 100 nM DCPLA-ME added every three days, along with 50% medium replacement, for 40 days. More specifically, human primary cortical neurons were grown in Neuronal Medium (ScienCell Cat No#1521) containing neuronal growth supplement (NGS) (Sciencell Cat No#1562).
Cells were plated on poly-l-lysine (0.001%) coated plates at a density of >10000 cells/cm2. Half of the media was replaced by new media every 3 days. DCPLA-ME was dissolved in 100% ethanol and added at 100 nM final concentration. Fresh DCPLA-ME (100 nM) was added every 3 days during media change. The experiments were continued for 40 days.
Human primary neurons (ScienCell Research Laboratories, USA) were thawed and plated on poly-L-lysine coated plates at a density of 10,000 cells per cm^2 and were maintained in neuronal medium (DMEM+high glucose+neuronal growth supplement, ScienCell Research Laboratories, USA) following the recommended method. Primary human neurons were then treated with either DCPLA-ME (100 nM) or bryostatin 1 (0.27 nM) for 40 days. Fresh drug was added every third day with 50% media change.

[7] = tested on: cultured primary rat hippocampal neurons; assay: Neuroprotection against ASPD induced toxicity, MTT assay, primary neurons; format: cell-based; conditions: 50 nM ASPD, 20 hr, activator 0.27 nM
Experimental: as §5
Bryostatin 1, DCPLA, and DCPLA-ME were tested against ASPD-induced cytotoxicity to determine their neuroprotective efficacy.

Row | Molecule | PKC-ε membrane translocation [1] | synaptophysin mean fluorescence intensity [2] | PSD-95 expression [3] | Viability of primary neuron ([4]; 50 nM) | Viability of primary neuron ([4]; 500 nM) | Viability of primary neuron ([4]; 1000 nM (1 μM)) | 3H-DCPLA-ME binding, 30 nM competitor ([5]; 30 nM competitor) | 3H-DCPLA-ME binding, 1 μM competitor ([5]; 1 μM competitor) | co-localized staining of PSD-95 and synaptophysin in puncta ([6]; 30 day old neurons) | Immunostaining of PSD-95 and synaptophysin from Western blots ([6]; 40 days) | viability of ASPD-treated primary neurons [7]
1 | Aβ Monomer: monomeric Aβ1-42 | did not affect translocation | did not change | did not change |  |  |  |  |  |  |  | 
2 | ADDL: Aβ derived diffusible ligands prepared from Aβ1-42, containing 6.5 monomers on average | 80.82±4.025% | 75.64±4.84 % of control |  | 91.15 ± 1.44 % of control | 79.01 ± 11.32 % of control | 50.98±3.8 % of control and 49.02 ± 7.26 % of control |  |  |  |  | 
3 | CCC/C=C/C=C/C(=O)O[C@H]1/C(=C/C(=O)OC)C[C@H]2C[C@H]([C@@H](C)O)OC(=O)C[C@H](O)C[C@@H]3C[C@H](OC(C)=O)C(C)(C)[C@](O)(C[C@@H]4C/C(=C/C(=O)OC)C[C@H](/C=C/C(C)(C)[C@]1(O)O2)O4)O3 [Bryostatin 1] |  |  |  |  |  |  | 100% | 77% | increased co-localized staining | significantly higher | 73.23±3.6%
